Measurements as given in patent US20260034112A1, “MULTI-CYCLIC IRAK1 AND IRAK4 INHIBITING COMPOUNDS AND USES THEREOF” (CHILDREN'S HOSPITAL MEDICAL CENTER, priority 2022, published 2026).

Tested on: THP1 cells
Type: cell-based, human
Details: CA-4948 vs DMSO in THP1 cells

In the case of Cc1cc(-c2nc(C(=O)Nc3cc4oc(N5CCOCC5)nc4nc3N3CC[C@@H](O)C3)co2)ccn1 [CA-4948, emavusertib], the “Log(FC) of gene LOC101929243” value is reported as 0.7647, the “Log(FC) of gene LOC101929264” value is reported as 0.8417 and the “Log(FC) of gene LOC101929280” value is reported as 0.7936. The “Log(FC) of gene LOC101929661” value was 0.748, the “Log(FC) of gene LOC101929747” value was 0.6127 and the “Log(FC) of gene LOC101929814” value was −0.8463. For the same compound, the “Log(FC) of gene LOC102467073” value was 0.73, the “Log(FC) of gene LOC102723589” value was 0.8153 and the “Log(FC) of gene LOC102723616” value was 0.7122. For the same compound, the “Log(FC) of gene LOC102723714” value was 0.6674, the “Log(FC) of gene LOC102723959” value was 0.9881 and the “Log(FC) of gene LOC102723975” value was 1.408. The “Log(FC) of gene LOC102724098” value was −0.6399, the “Log(FC) of gene LOC102724169” value was 0.726 and the “Log(FC) of gene LOC102724217” value was 0.6865. The “Log(FC) of gene LOC102724235” value was 0.7375, the “Log(FC) of gene LOC102724248” value was 0.652 and the “Log(FC) of gene LOC102724409” value was 1.429. For the same compound, the “Log(FC) of gene LOC102724528” value was −0.8481, the “Log(FC) of gene LOC102724545” value was 0.8513 and the “Log(FC) of gene LPAR2” value was 0.7255. For the same compound, the “Log(FC) of gene M1AP” value was 0.7754, the “Log(FC) of gene MAMDC4” value was 0.628 and the “Log(FC) of gene MBLAC1” value was −0.6134. The “Log(FC) of gene MDGA1” value was 0.7307, the “Log(FC) of gene METTL12” value was 0.6315 and the “Log(FC) of gene MFI2-AS1” value was 0.5997. For the same compound, the “Log(FC) of gene MGC12916” value was −0.9124, the “Log(FC) of gene MGC16142” value was 0.5952 and the “Log(FC) of gene MIR570” value was 1.064. For the same compound, the “Log(FC) of gene MIR1244-1” value was 0.6309, the “Log(FC) of gene MIR3187” value was 1.121 and the “Log(FC) of gene MROH6” value was 0.8417. The “Log(FC) of gene MYLK-AS1” value was 1.091, the “Log(FC) of gene MYO7B” value was 0.6068 and the “Log(FC) of gene NGFR” value was 0.8097. The “Log(FC) of gene NOL3” value was 0.6401, the “Log(FC) of gene NPFF” value was 0.6633 and the “Log(FC) of gene NPIPA3” value was 1.643. For the same compound, the “Log(FC) of gene NPIPA8” value was 0.8183, the “Log(FC) of gene ORM1” value was 0.6834 and the “Log(FC) of gene PAPPA2” value was 0.8397. For the same compound, the “Log(FC) of gene PAQR6” value was 0.6274, the “Log(FC) of gene PAX8” value was −0.6687 and the “Log(FC) of gene PCBP3” value was 0.5937. The “Log(FC) of gene PCOLCE2” value was −0.6424, the “Log(FC) of gene PDE5A” value was 0.8121 and the “Log(FC) of gene PDPN” value was 0.7486. The “Log(FC) of gene PITX2” value was 0.6882, the “Log(FC) of gene POLN” value was 1.016 and the “Log(FC) of gene POTEE” value was 1.077. The “Log(FC) of gene PPIEL” value was 0.6279, the “Log(FC) of gene PPP1R13L” value was 0.6598 and the “Log(FC) of gene PPP1R32” value was 0.5902. For the same compound, the “Log(FC) of gene PROB1” value was 0.6297, the “Log(FC) of gene PRR22” value was 1.272 and the “Log(FC) of gene PRSS53” value was 0.79. For the same compound, the “Log(FC) of gene PSMG3-AS1” value was 0.6249, the “Log(FC) of gene PTGER1” value was 0.6218 and the “Log(FC) of gene QRICH2” value was 0.9066. The “Log(FC) of gene RAPGEFL1” value was 0.6118, the “Log(FC) of gene RARRES3” value was 0.6342 and the “Log(FC) of gene RASSF8-AS1” value was −0.6459. For the same compound, the “Log(FC) of gene RCN3” value was 0.6431, the “Log(FC) of gene RIMS2” value was −0.6856 and the “Log(FC) of gene RN7SK” value was −0.7805. For the same compound, the “Log(FC) of gene RN7SL1” value was −0.6652, the “Log(FC) of gene RNU2-2P” value was −3.126 and the “Log(FC) of gene RNU86” value was 0.6578. For the same compound, the “Log(FC) of gene RNU105A” value was −0.7199, the “Log(FC) of gene RP3-476K8.3” value was 0.6781 and the “Log(FC) of gene RP11-261C10.3” value was −0.7243. The “Log(FC) of gene RP11-307C12.11” value was 0.6268, the “Log(FC) of gene RP11-344E13.3” value was 0.712 and the “Log(FC) of gene RP11-454P21.1” value was 0.5869. The “Log(FC) of gene RP11-540A21.2” value was −0.8218, the “Log(FC) of gene RPPH1” value was −1.864 and the “Log(FC) of gene RPS18P9” value was 0.9157. The “Log(FC) of gene RPSAP9” value was −0.6976, the “Log(FC) of gene RUFY4” value was 0.9698 and the “Log(FC) of gene SAMD5” value was −0.6977. For the same compound, the “Log(FC) of gene SAMD13” value was −0.6418, the “Log(FC) of gene SAP25” value was 0.962 and the “Log(FC) of gene SARM1” value was 0.783. For the same compound, the “Log(FC) of gene SCART1” value was 1.38, the “Log(FC) of gene SCN8A” value was 0.7836 and the “Log(FC) of gene SCXB” value was 0.8721. For the same compound, the “Log(FC) of gene SEC31B” value was 0.7359, the “Log(FC) of gene SEMA3B” value was 0.6963 and the “Log(FC) of gene SEMA3C” value was −0.6821. The “Log(FC) of gene SEMG1” value was −0.6203, the “Log(FC) of gene SERPINB2” value was −0.6225 and the “Log(FC) of gene SIGLEC16” value was 0.7305. For the same compound, the “Log(FC) of gene SIM1” value was −0.8741, the “Log(FC) of gene SLC2A14” value was 0.5944 and the “Log(FC) of gene SLC7A5P2” value was 0.8202. For the same compound, the “Log(FC) of gene SLC7A11” value was −0.9711, the “Log(FC) of gene SLC22A20” value was 0.7923 and the “Log(FC) of gene SLC25A5-AS1” value was −0.5981. The “Log(FC) of gene SLCO2B1” value was −0.6999, the “Log(FC) of gene SLFNL1” value was 0.599 and the “Log(FC) of gene SLFNL1-AS1” value was 0.7053. The “Log(FC) of gene SMA4” value was −0.6311, the “Log(FC) of gene SNORD3A” value was −1.579 and the “Log(FC) of gene SNORD30” value was 1.062. For the same compound, the “Log(FC) of gene SNORD79” value was 0.5858, the “Log(FC) of gene SNX32” value was 0.6555 and the “Log(FC) of gene SPATA41” value was 0.6171. The “Log(FC) of gene SPATC1” value was 1.175, the “Log(FC) of gene SPRED1” value was −0.6296 and the “Log(FC) of gene SPTBN5” value was 1.272. The “Log(FC) of gene ST13P4” value was −0.623, the “Log(FC) of gene STX18-AS1” value was 0.8594 and the “Log(FC) of gene STXBP5-AS1” value was 0.6561. For the same compound, the “Log(FC) of gene SYDE2” value was −0.6236, the “Log(FC) of gene SYTL2” value was 0.7254 and the “Log(FC) of gene TCAM1P” value was 0.6669. The “Log(FC) of gene TEKT4P2” value was 0.8324, the “Log(FC) of gene TESPA1” value was 0.724 and the “Log(FC) of gene TLR5” value was 0.7065. For the same compound, the “Log(FC) of gene TMEM9B-AS1” value was 0.8758, the “Log(FC) of gene TMEM86B” value was 0.6481 and the “Log(FC) of gene TMEM145” value was 0.9943. The “Log(FC) of gene TMEM150A” value was −0.8108, the “Log(FC) of gene TMEM175” value was 0.6594 and the “Log(FC) of gene TMEM191A” value was 0.6824. The “Log(FC) of gene TMEM254-AS1” value was 0.767, the “Log(FC) of gene TMEM255A” value was −0.5904 and the “Log(FC) of gene TMPRSS13” value was 0.6639. For the same compound, the “Log(FC) of gene TNFAIP8L2-SCNM1” value was −1.749, the “Log(FC) of gene TNXB” value was 1.806 and the “Log(FC) of gene TP53I3” value was 0.7187. For the same compound, the “Log(FC) of gene TPD52L1” value was 0.7014, the “Log(FC) of gene TRIM72” value was 0.5946 and the “Log(FC) of gene TSKU” value was −0.6402. For the same compound, the “Log(FC) of gene TSPEAR-AS1” value was 0.5855, the “Log(FC) of gene TTC4” value was −0.6304 and the “Log(FC) of gene TUBA1A” value was 0.5916. For the same compound, the “Log(FC) of gene TXLNB” value was 0.8051, the “Log(FC) of gene UCN” value was 1.177 and the “Log(FC) of gene UCP3” value was 0.6963. For the same compound, the “Log(FC) of gene ULK4P1” value was −0.9282, the “Log(FC) of gene UNC5CL” value was 0.8031 and the “Log(FC) of gene VAMP5” value was 0.6392. For the same compound, the “Log(FC) of gene VWA7” value was 0.8656, the “Log(FC) of gene WDFY3-AS2” value was 0.6617 and the “Log(FC) of gene WNK4” value was 1.507. For the same compound, the “Log(FC) of gene WT1-AS” value was 0.6396, the “Log(FC) of gene YJEFN3” value was 1.024 and the “Log(FC) of gene ZCWPW2” value was −0.722. The “Log(FC) of gene ZDHHC11” value was 1.406, the “Log(FC) of gene ZNF284” value was −0.5982 and the “Log(FC) of gene ZNF491” value was 0.7713. For the same compound, the “Log(FC) of gene ZNF891” value was −0.7965, the “Log(FC) of gene ZP3” value was 0.9339 and the “Log(FC) of gene ZSWIM8-AS1” value was 0.9316.
